The record followed here is PMC5080985 (Journal of medicinal chemistry, 2015).

Assay [1] addresses AmpC β-lactamase (Escherichia coli, UniProt P00811). The assay can be described thus: Controls for colloidal aggregation. The following applies: AmpC β-lactamase counterscreen, particle formation by DLS. On the technique in general: The purpose of a counterscreen is to sort out artefacts and off-target activity.
In assay [2] the target is T1, KDM4C (Homo sapiens, UniProt Q9H3R0).
T1 sequence (Q9H3R0 1-352): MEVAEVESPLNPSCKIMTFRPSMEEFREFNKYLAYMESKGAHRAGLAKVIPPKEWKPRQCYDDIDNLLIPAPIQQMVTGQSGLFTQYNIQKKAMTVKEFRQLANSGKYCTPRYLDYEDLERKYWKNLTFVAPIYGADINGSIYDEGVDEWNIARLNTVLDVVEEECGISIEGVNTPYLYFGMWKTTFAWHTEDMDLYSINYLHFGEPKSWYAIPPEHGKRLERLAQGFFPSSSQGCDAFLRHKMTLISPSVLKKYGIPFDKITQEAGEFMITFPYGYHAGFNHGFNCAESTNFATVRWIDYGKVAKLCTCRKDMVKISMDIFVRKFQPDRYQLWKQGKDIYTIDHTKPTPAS
The experiment in a line: KDM4C time-resolved FRET. It counts as biochemical.

Assay [3] addresses FIH (Homo sapiens, UniProt Q9NWT6). The experiment in a line: MALDI counterscreen, FIH. It counts as biochemical.
The target in assay [4] is KDM5B (JARID1B, PLU-1) (Homo sapiens, UniProt Q9UGL1). The assay can be described thus: AlphaScreen counterscreen, KDM5B. It counts as biochemical. On the technique in general: In Alpha technology, singlet oxygen from a donor bead excites a nearby acceptor bead.
Assay [5] concerns the target T2, KDM4C (Homo sapiens, UniProt Q9H3R0).
T2 sequence (Q9H3R0 1-1056): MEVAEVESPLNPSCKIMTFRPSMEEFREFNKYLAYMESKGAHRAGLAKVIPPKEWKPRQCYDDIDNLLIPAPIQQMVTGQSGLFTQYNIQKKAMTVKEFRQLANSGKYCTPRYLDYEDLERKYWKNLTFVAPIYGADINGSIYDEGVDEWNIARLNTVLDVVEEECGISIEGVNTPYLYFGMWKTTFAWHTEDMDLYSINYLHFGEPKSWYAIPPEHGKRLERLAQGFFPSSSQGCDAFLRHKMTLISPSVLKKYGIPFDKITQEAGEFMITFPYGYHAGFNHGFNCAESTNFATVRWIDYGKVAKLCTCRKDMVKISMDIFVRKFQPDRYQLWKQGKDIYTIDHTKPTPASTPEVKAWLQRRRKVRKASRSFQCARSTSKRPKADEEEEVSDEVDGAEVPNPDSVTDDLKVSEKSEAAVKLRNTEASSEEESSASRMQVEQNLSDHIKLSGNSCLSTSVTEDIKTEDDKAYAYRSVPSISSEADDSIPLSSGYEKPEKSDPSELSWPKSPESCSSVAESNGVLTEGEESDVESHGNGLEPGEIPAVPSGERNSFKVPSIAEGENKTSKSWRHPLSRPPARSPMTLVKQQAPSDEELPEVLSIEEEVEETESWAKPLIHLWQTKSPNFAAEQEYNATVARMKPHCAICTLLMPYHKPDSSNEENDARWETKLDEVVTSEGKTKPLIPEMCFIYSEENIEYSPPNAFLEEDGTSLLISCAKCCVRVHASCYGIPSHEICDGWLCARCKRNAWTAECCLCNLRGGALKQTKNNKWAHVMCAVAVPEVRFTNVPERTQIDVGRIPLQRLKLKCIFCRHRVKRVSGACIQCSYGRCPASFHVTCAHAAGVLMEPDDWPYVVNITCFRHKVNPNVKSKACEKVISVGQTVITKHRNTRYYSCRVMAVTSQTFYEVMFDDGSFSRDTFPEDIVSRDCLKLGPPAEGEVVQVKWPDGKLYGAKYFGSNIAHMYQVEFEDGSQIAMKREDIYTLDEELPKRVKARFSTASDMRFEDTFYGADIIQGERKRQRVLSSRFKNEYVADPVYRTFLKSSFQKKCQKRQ
The experiment in a line: MALDI assay, KDM4C. The format is biochemical.

Assay [6] addresses KDM6B (JMJD3) (Homo sapiens, UniProt O15054). The assay can be described thus: AlphaScreen counterscreen, KDM6B. It counts as biochemical.
Assay [7] deals with T3, KDM2A (FBXL11) (Homo sapiens, UniProt Q9Y2K7).
T3 sequence (Q9Y2K7 1-1162): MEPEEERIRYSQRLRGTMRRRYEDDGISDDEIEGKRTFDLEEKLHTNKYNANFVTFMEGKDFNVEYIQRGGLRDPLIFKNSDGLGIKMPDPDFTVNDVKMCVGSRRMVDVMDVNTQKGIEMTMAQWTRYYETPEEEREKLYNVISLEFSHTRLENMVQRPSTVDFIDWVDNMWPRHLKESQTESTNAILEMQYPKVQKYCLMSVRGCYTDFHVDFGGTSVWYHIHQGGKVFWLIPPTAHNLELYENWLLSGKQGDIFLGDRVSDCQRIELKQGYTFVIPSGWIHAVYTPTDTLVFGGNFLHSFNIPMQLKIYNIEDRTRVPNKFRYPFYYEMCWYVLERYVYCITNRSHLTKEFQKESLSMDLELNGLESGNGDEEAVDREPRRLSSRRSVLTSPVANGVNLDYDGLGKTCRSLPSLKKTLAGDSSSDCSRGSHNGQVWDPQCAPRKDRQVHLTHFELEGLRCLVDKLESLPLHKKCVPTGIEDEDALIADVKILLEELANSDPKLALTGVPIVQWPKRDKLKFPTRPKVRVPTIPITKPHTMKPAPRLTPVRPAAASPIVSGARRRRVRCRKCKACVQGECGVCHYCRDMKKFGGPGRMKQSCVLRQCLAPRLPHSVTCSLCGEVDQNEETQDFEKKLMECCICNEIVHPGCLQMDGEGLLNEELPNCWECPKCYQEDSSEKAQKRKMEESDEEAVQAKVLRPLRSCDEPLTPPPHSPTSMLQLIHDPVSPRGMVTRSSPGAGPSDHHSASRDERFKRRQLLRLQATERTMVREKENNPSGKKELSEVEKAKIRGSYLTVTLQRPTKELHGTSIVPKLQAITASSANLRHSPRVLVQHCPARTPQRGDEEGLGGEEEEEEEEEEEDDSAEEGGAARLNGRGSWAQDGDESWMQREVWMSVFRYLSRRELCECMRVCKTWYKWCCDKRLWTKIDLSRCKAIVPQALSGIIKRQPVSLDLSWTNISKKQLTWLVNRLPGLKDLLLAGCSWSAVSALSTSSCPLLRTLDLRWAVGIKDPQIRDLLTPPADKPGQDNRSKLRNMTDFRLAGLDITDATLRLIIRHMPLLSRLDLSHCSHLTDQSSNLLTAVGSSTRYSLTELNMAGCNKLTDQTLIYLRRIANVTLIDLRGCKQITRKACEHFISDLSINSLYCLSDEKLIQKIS
The experiment in a line: AlphaScreen counterscreen, KDM2A. The format is biochemical.

In assay [8] the target is T2, KDM4C. The experiment in a line: Thermal shift assay. The format is binding.

Sequence of FIH (Q9NWT6 whole entry): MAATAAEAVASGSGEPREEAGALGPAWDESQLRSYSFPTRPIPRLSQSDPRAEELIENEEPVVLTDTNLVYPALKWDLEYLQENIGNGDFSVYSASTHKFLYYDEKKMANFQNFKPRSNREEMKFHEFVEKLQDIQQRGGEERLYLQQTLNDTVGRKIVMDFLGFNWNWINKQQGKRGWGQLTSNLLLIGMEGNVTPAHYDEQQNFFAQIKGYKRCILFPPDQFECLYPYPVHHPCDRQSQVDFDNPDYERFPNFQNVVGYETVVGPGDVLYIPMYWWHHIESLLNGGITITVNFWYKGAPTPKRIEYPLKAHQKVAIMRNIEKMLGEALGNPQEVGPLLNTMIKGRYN
Sequence of AmpC β-lactamase (P00811 20-377): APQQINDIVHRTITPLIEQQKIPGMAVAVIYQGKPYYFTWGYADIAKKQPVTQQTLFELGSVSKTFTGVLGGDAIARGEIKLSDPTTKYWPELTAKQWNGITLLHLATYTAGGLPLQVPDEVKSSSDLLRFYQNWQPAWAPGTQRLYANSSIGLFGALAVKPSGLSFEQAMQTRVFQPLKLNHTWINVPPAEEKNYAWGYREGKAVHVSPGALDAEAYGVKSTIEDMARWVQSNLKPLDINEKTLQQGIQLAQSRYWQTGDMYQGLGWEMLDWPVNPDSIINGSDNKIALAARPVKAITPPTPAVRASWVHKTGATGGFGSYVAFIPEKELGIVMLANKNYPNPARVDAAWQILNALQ
Sequence of KDM5B (JARID1B, PLU-1) (Q9UGL1 whole entry, species assumed): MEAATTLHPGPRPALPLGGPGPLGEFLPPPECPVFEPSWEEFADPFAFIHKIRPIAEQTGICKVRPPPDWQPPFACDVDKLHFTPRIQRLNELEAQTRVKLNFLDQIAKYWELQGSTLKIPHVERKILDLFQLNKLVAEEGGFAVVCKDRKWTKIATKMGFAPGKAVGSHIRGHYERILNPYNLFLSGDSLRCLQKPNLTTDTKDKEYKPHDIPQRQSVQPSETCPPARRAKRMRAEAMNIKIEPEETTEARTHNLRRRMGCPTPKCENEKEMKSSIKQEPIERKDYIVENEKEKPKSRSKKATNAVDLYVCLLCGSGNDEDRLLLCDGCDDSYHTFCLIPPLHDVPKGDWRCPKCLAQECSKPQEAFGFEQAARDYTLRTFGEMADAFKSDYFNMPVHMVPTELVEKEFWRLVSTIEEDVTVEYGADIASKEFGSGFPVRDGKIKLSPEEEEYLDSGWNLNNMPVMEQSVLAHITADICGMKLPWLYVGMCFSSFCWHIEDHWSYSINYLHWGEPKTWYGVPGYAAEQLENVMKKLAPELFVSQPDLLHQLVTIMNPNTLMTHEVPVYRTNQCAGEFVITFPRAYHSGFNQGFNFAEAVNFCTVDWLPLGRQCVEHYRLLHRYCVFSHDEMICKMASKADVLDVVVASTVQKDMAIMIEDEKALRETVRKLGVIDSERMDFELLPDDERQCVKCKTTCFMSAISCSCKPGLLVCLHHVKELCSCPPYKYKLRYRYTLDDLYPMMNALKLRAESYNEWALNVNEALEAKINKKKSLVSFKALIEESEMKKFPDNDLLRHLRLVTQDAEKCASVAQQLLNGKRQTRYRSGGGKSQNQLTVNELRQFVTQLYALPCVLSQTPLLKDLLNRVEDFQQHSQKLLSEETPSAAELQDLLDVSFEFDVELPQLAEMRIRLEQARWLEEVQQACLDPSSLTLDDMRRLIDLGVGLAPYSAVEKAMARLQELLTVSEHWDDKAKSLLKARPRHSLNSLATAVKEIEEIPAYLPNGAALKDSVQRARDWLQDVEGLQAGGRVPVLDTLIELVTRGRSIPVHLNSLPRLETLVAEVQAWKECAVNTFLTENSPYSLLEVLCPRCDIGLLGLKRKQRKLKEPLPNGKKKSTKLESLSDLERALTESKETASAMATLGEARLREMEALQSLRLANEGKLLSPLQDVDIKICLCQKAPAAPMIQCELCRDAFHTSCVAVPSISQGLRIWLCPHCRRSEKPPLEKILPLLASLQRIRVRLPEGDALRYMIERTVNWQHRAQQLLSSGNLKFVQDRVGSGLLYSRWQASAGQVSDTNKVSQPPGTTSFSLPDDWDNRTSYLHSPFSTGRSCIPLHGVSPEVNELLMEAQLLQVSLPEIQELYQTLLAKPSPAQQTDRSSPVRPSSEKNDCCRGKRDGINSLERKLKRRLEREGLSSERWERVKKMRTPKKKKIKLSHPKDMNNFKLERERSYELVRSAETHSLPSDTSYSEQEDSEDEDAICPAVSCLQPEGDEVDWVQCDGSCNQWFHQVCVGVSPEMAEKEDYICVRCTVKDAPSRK
Sequence of KDM6B (JMJD3) (O15054 whole entry, species assumed): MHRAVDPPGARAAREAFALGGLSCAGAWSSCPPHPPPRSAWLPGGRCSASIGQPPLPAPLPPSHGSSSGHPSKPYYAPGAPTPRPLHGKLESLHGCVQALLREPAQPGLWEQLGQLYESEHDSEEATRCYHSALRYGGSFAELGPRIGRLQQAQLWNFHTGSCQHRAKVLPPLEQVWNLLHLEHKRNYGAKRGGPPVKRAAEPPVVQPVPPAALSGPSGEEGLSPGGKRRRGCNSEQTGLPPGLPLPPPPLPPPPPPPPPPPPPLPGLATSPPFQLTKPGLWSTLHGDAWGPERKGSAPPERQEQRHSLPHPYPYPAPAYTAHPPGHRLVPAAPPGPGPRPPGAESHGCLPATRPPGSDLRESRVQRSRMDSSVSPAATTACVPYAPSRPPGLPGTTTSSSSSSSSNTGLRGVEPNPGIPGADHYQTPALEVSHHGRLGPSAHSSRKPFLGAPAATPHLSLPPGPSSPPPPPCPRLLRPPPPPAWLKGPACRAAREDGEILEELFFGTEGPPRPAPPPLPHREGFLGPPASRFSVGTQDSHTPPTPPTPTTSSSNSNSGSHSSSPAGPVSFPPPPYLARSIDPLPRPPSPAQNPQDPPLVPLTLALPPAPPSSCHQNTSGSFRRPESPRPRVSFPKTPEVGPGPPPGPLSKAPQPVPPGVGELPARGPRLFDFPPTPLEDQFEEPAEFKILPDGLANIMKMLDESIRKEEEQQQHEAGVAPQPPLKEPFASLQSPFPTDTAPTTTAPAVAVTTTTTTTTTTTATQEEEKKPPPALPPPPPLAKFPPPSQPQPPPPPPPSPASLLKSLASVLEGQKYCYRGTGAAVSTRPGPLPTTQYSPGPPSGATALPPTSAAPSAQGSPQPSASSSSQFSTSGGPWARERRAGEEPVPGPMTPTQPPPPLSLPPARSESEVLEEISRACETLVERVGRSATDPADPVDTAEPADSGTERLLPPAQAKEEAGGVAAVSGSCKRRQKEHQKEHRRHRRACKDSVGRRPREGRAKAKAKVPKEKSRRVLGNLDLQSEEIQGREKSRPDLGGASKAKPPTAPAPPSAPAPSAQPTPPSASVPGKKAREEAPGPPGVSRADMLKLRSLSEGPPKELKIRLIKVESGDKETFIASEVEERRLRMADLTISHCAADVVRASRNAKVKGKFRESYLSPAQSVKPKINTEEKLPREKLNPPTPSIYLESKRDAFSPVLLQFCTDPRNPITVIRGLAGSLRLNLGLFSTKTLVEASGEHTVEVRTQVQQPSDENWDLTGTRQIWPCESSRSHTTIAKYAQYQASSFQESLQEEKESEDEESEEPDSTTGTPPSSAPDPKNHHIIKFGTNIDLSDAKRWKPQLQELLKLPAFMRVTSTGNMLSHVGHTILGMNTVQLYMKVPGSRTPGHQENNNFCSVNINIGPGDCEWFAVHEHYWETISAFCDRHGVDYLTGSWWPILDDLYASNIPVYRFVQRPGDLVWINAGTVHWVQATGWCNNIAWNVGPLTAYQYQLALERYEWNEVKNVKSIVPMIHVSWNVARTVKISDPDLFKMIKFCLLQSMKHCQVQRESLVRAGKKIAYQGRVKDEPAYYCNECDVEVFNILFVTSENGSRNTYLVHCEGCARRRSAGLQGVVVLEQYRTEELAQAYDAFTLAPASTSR

With `COCC(=O)Nc1ccc(O)c(C(=O)O)c1` [Compound 5], in assay [1], the “nonspecific inhibition / colloidal aggregation” value was “neither of the two inhibitors acted as aggregators in a relevant concentration range”.

With `CC(=O)Nc1ccc(O)c(C(=O)O)c1` [N-acetyl-5-aminosalicylic acid], the “IC50(μM) 2μM αKG” value in assay [2] (KDM4C, TR-FRET, 2 μM α-KG) was “no inhibition”.

On to `O=C(O)c1ccnc(-c2cc(NC(=O)c3ccc(O)cc3)ccc2O)c1` [Compound 35], for which the “fold selectivity over KDM4C, FIH” value in assay [3] (MALDI, 100 μM α-KG) is on record as greater than 85 fold. In assay [4], the “fold selectivity over KDM4C, KDM5B” value is “Ml”.

On to `Nc1ccc(O)c(-c2cc(C(=O)O)ccn2)c1` [Compound 30, 2-(5-Amino-2-hydroxyphenyl)-isonicotinic Acid], for which the half-maximal inhibitory concentration (IC50) (as a rule, the midpoint of a concentration-inhibition curve) came out at 828 µM in assay [3] and 135 µM in assay [5]. In addition, the “fold selectivity over KDM4C, FIH” value in assay [3] (MALDI, 100 μM α-KG) worked out at 6 fold.

With `CC(=O)Nc1ccc(O)c(-c2cc(C(=O)O)ccn2)c1` [Compound 44], the “fold selectivity over KDM4C, FIH” value in assay [3] (MALDI, 100 μM α-KG) is reported as greater than 8 fold. Moreover, in assay [3] (MALDI, 100 μM α-KG, >500 = no inhibition at 500 μM inhibitor), the “IC50 FIH, MALDI Assays” value is recorded as “no inhibition”. Also, the “fold selectivity over KDM4C, KDM6B” value in assay [6] is greater than 6 fold. Besides, in assay [7], the “fold selectivity over KDM4C, KDM2A” value is listed as greater than 6 fold.

`Cc1ccccc1CNc1ccc(O)c(C(=O)O)c1` [Compound 20]: the “nonspecific inhibition / colloidal aggregation” value in assay [1] is “did not exhibit nonspecific inhibition”. Besides, the “stabilization of the enzyme in thermal shift assays” value in assay [8] is “stabilized the enzyme in thermal shift assays”.

Consider `COc1cccc(CC(=O)Nc2ccc(O)c(-c3cc(C(=O)O)ccn3)c2)c1` [Compound 40], for which the “fold selectivity over KDM4C, FIH” value in assay [3] (MALDI, 100 μM α-KG) is given as greater than 68 fold.

As to `Cn1nccc1CNc1ccc(O)c(C(=O)O)c1` [Compound 4], the “nonspecific inhibition / colloidal aggregation” value in assay [1] is “neither of the two inhibitors acted as aggregators in a relevant concentration range”.

Take `COCC(=O)Nc1ccc(O)c(-c2cc(C(=O)O)ccn2)c1` [Compound 42]: the “fold selectivity over KDM4C, FIH” value in assay [3] (MALDI, 100 μM α-KG) was greater than 11 fold. Moreover, the “fold improvement in potency over the parent 5-aminosalicylate fragment” value in assay [2] (TR-FRET IC50 at 2 μM α-KG, 42 vs 5, 21 vs 4) is reported as roughly 700 fold.
